This passage reports EC50 results from publication PMC7653765 (BMC Complementary Medicine and Therapies, 2020).

This test relates to 3 T3-L1 adipocytes. The experiment in a line: Adipocyte glucose uptake test. It is filed as cell-based, mouse. The method, then:
The 3 T3-L1 mouse embryonic fibroblasts were cultured for induction of adipogenesis, and […] 3 T3-L1 adipocytes were plated for glucose uptake. Krebs-Ringer-Phosphate-HEPES (KRPH) buffer was used to prepare 10-point 3-fold gradient diluted samples. After starvation, the adipocytes were rinsed with KRPH buffer. Ninety μL of gradient-diluted samples of different concentrations were added to each well with high- and low-signal control wells and incubated in a CO2 incubator for 30 min. Add 10 μL/well of KRPH buffer containing 0.25 μCi1- [3H] -deoxyglucose and 50 μM 2-deoxyglucose and incubate in a CO2 incubator for 20 min. Wash the cells with DPBS containing 10 mM glucose at 4 °C. Lysate fat cells with sodium hydroxide solution, transfer to scintillation tube, add scintillation fluid, and count with TriCarb.

The mark [1] stands for this setting: mean ± SEM of 3 repeats, read-out: EC50, fat cell glucose uptake, Mean ± SEM.
Setting [2] is: read-out: EC50, fat cell glucose uptake, N = 1, replicate N = 1, 3 T3-L1 adipocytes, 30 min sample, 20 min [3H]-deoxyglucose.
Where [3] appears, read: read-out: EC50, fat cell glucose uptake, N = 2, replicate N = 2.
The mark [4] stands for this setting: read-out: EC50, fat cell glucose uptake, N = 3, replicate N = 3.

Where two headings read alike, the source gives them in different places.

As usually defined, the EC50 is the midpoint of the concentration-response curve.

For the substance “H-Insulin: recombinant human insulin injection obtained from Lilly, a regular insulin”, the EC50 was found to be 1.8 ± 0.2 nM under setting [1], 0.9 nM under setting [2], 1.7 nM under setting [3] and 2.2 nM under setting [4].

Turning to “S-Insulin: recombinant human-derived insulin from Sigma, a regular insulin, standard control”, the EC50 by setting is: under setting [1], 3.7 ± 0.5 nM; under setting [2], 2.5 nM; under setting [3], 5.3 nM; under setting [4], 3 nM.
